Assay results taken from patent publication US8361743B2, “Biological production of zeaxanthin and carotenoid biosynthesis control” (Aquapharm Bio-Discovery Ltd., priority 2005, dated 2013).

Tested on: strain AQP096
Test: Induction of the carotenoid biosynthetic pathway using menadione, HPLC carotenoid analysis
Assay type: cell-based, Algibacter sp. AQP096
Procedure: On the HPLC using a reverse phase Gemini C-18 250×4.6 mm column, 10 μl of pigment sample was eluted with a linear gradient from 10% v/v Acetone in Water: 100% Acetone (30:70) to 10% v/v Acetone in Water:100% Acetone (5:95) for 10 min followed with a 6 minute run of 10% v/v Acetone in Water:100% Acetone (5:95) before returning to the start conditions of 10% v/v Acetone in Water: 100% Acetone (30:70) with a 1 min linear gradient and a two minute run of 10% v/v Acetone in Water:100% Acetone (30:70) at a flow rate of 1.3 ml/min. Detection was at 450 nm. Menadione at a concentration of 0.100 mg/ml was added to a 24 hr old culture of AQP096 cultured in marine broth. This culture was further incubated for 4 days on the orbital shaker at 220 rpm […]. After 5 days of incubation, cultures were centrifuged (4,500 rpm, 20 min) and the pigments analysed for carotenoid content by HPLC (See FIGS. 4a and 4b).

For `CC1=CC(=O)c2ccccc2C1=O` [menadione], the “induced production of astaxanthin” value (menadione 0.100 mg/ml) was ~12%, the “induced production of beta carotene” value (menadione 0.100 mg/ml) was “about 10%” and the “induced production of beta-cryptoxanthin” value (menadione 0.100 mg/ml) was ~8%. The “induced production of canthaxanthin” value (menadione 0.100 mg/ml) was ~12%, the “induced production of lycopene” value (menadione 0.100 mg/ml) was ~6% and the “induced production of other carotenoids such as adonirubin and 3-hydroxyechinenone” value (menadione 0.100 mg/ml) was ~2%. For the same molecule, the “effect on carotenoid production” value (menadione 0.100 mg/ml added to 24 hr old culture in marine broth, HPLC) was “induced the production of all carotenoids associated with the standard carotenoid biosynthetic pathway” and the “amount of zeaxanthin produced by AQP096” value (menadione 0.100 mg/ml, 98% under standard growth conditions) was “around 60%”.
